According to patent publication US8748485B2, “Compound and medical use thereof” (Ono Pharmaceuticals Co., Ltd., priority 2010, dated 2014):

Experiments:
[1] = Kinetic study in dogs (oral administration, plasma levodopa); conditions: dog, in vivo, po, 3 mg/kg
From the text: The relationship between the blood concentration of levodopa and side effects in patients who take levodopa has been gradually elucidated. […] In order to reduce the number of doses of levodopa and avoid side effects such as dyskinesia and wearing-off in patients who take levodopa, it is necessary to maintain the blood concentration of levodopa within a therapeutic range as long as possible.
These levodopa prodrugs are prodrugs containing an ester bond, and therefore, it is considered that among a number of enzymes, carboxyesterase plays the most important role in the process of producing levodopa by metabolizing the compound after the compound is administered in vivo. Therefore, as an animal species to be used for performing a kinetic study, dogs in which the organ distribution of carboxyesterase is most similar to that of humans were selected as subjects for evaluation.
The thus obtained drug solution was administered by gavage through a gastric tube into the stomach of dogs (male beagle dogs) which were fasted from the day before the administration. At 15 and 30 minutes, and 1, 2, 4, 6, and 8 hours after administration of the drug solution, 1 mL of blood was collected from a cephalic vein with a heparinized syringe. Immediately after the collection, the collected blood was centrifuged in a desktop centrifuge at 14500 rpm for 45 seconds. Then, acetonitrile containing 0.1125% formic acid was added to the thus obtained plasma in an amount as twice as large as the volume of the plasma, followed by stirring, and then, the resulting sample was stored at −20° C. until measurement.
The sample was thawed on the measurement day, followed by stirring and centrifugation at 13000 rpm for 3 minutes (at 4° C.). The resulting supernatant was filtered and the filtrate was analyzed by LC/MS/MS. The analysis was performed by LC/MS/MS under the following conditions.
Measurement Apparatus: API-5000 (manufactured by Applied Biosystems, Inc.)
Analytical column: CAPCELL PAK CR (1:4) (4.6 mm, I.D.×250 mm, 5 μm)
Analytical column temperature: 40° C.
Mobile phase: A: 5 mM ammonium formate (pH 3.9), B: acetonitrile (A/B=17/3)
Detection (levodopa): m/z (precursor): 196.19, m/z (product): 134.99
DP (Declustering Potential): −60
CE (Collision Energy): −25
CXP (Collision Cell Exit Potential): −17
Incidentally, the numerical value in the column which indicates the dose expressed in terms of levodopa refers to a dose equivalent to that of levodopa.

[2] = tested on: p53R2; experiment: Mutagenicity assay using mammalian cells (NESMAGET method); format: cell-based
Method: In the treatment of Parkinson's disease and/or Parkinson's syndrome, there is a possibility that a levodopa prodrug is continued to be taken over a long period of time of several years to several decades. Therefore, an evaluation was carried out as to whether or not the compound of the present invention has mutagenicity by a mutagenicity assay using mammalian cells.
A mutagenicity assay using mammalian cells was carried out as a commissioning test to be undertaken by Nissin Foods Holdings Co., Ltd. The present method also called NESMAGET method is a method in which the expression of p53R2 which is a DNA repair gene is detected by luciferase activity, and the specific experimental technique is described in JP-A-2005-000024 and Japanese Patent No. 4243716. In the determination as to whether or not the result of this test was positive, the luciferase activity of p53R2 in the case of a vehicle control (0.3% dimethylsulfoxide) was taken as 100%, and a concentration at which a relative luciferase activity exceeded 200% was determined to be “concentration at which mutagenicity was determined to be positive”.

[3] = tested on: rat model injected with 6-hydroxydopamine into the medial forebrain bundle; experiment: Rotation test in model injected with 6-hydroxydopamine into medial forebrain bundle; format: in vivo, rats (male Crl:CD(SD)IGS); conditions: 6-OHDA rats
From the text: In the experiment, male Crl:CD(SD)IGS rats (Charles River Japan, Inc.) supplied at 5 weeks of age were used. The rats were housed in Econ cages (4 or less rats per cage) and were raised by giving free access to solid feed CRF-1 (Oriental Yeast Co., Ltd.) and tap water (in a water bottle) until they were subjected to the experiment. When acclimation after shipping was completed, each of the Crl:CD(SD)IGS rats at 6 weeks of age was anesthetized with pentobarbital sodium (Somnopentyl (registered trademark) injectable solution, 35 mg/kg, intraperitoneal injection). Subsequently, for the purpose of preventing damage to norepinephrine neurons by 6-hydroxydopamine (6-OHDA), desipramine (25 mg/kg) was intraperitoneally injected, and the rat was held and fixed by a brain fixation device. A small bone window was opened with a hand drill at a desired site, and 6-OHDA was injected into the medial forebrain bundle according to the brain atlas of Paxinos and Watson using a 30 G cannula (Brain Science Idea. Co. Ltd.) with a needle tip cut at an angle of 45° (site of injection: A=−4.5 mm, L=+1.2 mm, and V=−7.8 mm with respect to the bregma, injection amount: 8 μg/4 μL/8 min/site in each case). […] Thereafter, the burr hole was closed with an instant glue, and then sutured and disinfected with iodine tincture. […] In a rotation test, a device configured such that a black plastic circular cylinder having a diameter of 30 cm and a height of 35 cm was placed upright in a black-painted bowl having an opening diameter of 35 cm and a bottom diameter of 17 cm was used (the height of the curve from the bottom of the bowl to the bottom edge of the cylinder was set to 7 cm). The rat was placed in the device (one rat per device) and acclimated to the device for 30 minutes. Thereafter, a test substance was administered to the rat, and the rat was returned to the same device and videotaped. […] As for the number of rotations, a 360° rotation in one direction was determined to be one rotation. In the case where the direction (body's direction of movement or movement direction) was changed during rotation, the rotation was not included in the count. […] Incidentally, in each case, benserazide which is a dopa decarboxylase inhibitor (8 mg/kg) was orally administered concomitantly. […] In addition, the respective values are each a mean of the values obtained using 11 rats in each group and its standard error.

[4] = Kinetic study in dogs (combination use with dopa decarboxylase inhibitor carbidopa); format: in vivo, dogs (male beagle dogs); conditions: dogs given carbidopa 60 mg/kg; oral Example 5 18.6 mg/kg (6 mg/kg expressed in terms of levodopa)
Method: (3) Kinetic Study in Dogs (Combination Use with Dopa Decarboxylase Inhibitor (DCI)) […] As the DCI, carbidopa was used. […] The preparation of an analytical sample and analysis were carried out according to the method described in the same section in the Biological Example 1(1).

[5] = Simulation of kinetics in human blood on basis of results of kinetic study in dogs; conditions: simulated in humans versus SINEMET 100 mg tablet
Method: (4) Simulation of Kinetics in Human Blood on Basis of Results of Kinetic Study in Dogs
For the purpose of validating whether or not the effect of releasing levodopa over a long period of time of the compound of the present invention observed in the kinetic study in dogs is also observed in humans, a simulation of kinetics in human blood was carried out on the basis of the results of the kinetic study in dogs described in the above section (3).
By using the values obtained in the kinetic study in dog blood in the above section (3), a prediction model that simulates the kinetics in human blood was constructed.
Specifically, the blood concentration-time profile of levodopa or the compound of the present invention obtained in the kinetic study in dogs was input into Phoenix WinNonlin version 6.1 (Pharsight Corporation), which is kinetic analysis software, and the fitting of the plasma concentration of levodopa was carried out, whereby a prediction model that simulates the blood kinetics of levodopa was constructed.
Into this prediction model, the values of blood kinetics when a levodopa preparation was administered to humans described in the literature (Br. J. Clin. Pharm., 1989, Vol. 28, pp. 61-69, D. R. C. Robertson et al.) were input, and the kinetics of the compound of the present invention in human blood was simulated. […]

AUC (area under the blood concentration-time curve of levodopa) [1]: 0.89 μg^+ hr/mL | Cmax/C6 hr (ratio of maximum plasma concentration and plasma concentration at 6 hours after oral administration, levodopa) ([1]; male, beagle): 8.0 | time after administration at which plasma levodopa reached Cmax [4]: 4 h | time in the therapeutic range in humans relative to the currently available levodopa preparation [5]: about 3.4 times
Structure (SMILES): CC(C)(OC(=O)c1ccccc1)C(=O)Oc1ccc(C[C@H](N)C(=O)O)cc1OC(=O)C(C)(C)OC(=O)c1ccccc1.Cl [Example 5, (2S)-2-Amino-3-(3,4-bis((2-(benzoyloxy)-2-methylpropanoyl)oxy)phenyl)propanoic acid hydrochloride]
Mutagenicity assay (NESMAGET) Concentration at which mutagenicity was determined to be positive ([2]; concentration at which relative luciferase activity of p53R2 exceeded 200% (vehicle control 0.3% dimethylsulfoxide = 100%)): >200 µg/mL | determination of mutagenicity ([2]; positive = relative luciferase activity of p53R2 exceeded 200%, compound of the present invention up to 200 μg/mL): mutagenicity was not observed | lapse from administration after which the number of rotations began to increase ([3]; oral Example 5 100 mg/kg expressed in terms of levodopa, benserazide 8 mg/kg): ≥ 60 min | time after administration at which the number of rotations reached a maximum value ([3]; oral, levodopa 30 mg/kg or Example 5 100 mg/kg expressed in terms of levodopa, benserazide 8 mg/kg): 140 min | maximum value of the number of rotations per 10 minutes ([3]; oral, levodopa 30 mg/kg or Example 5 100 mg/kg expressed in terms of levodopa, benserazide 8 mg/kg concomitantly, N=11): ≥ 90 times
